Assay results from patent publication US9807999B2, “Formulations” (priority 2010, dated 2017).

How the values were obtained:
[1] = Solubility of active ingredients in solvents of the invention (equilibrated 4 weeks, supernatant analysed by gas chromatography)
Description: The resultant sample was mixed with a Whirlimixer™ and was then stored at 25° C. […] This procedure was repeated until the sample had equilibrated for 4 weeks following the final addition of either active ingredient or solvent.

[2] = Solubility of pesticides in propylene glycol benzoate compared with commonly used solvents; conditions: comparison in words; 20° C.
[3] = solvent butylene glycol benzoate (compound 2), 25° C., equilibrated 4 weeks
[4] = solvent propylene glycol benzoate (compound 1), 25° C., equilibrated 4 weeks

| Compound | Solubility in butylene glycol benzoate at 25° C. [1, 3] | Solubility in propylene glycol benzoate at 25° C. [1, 4] | Solubility in propylene glycol benzoate relative to a series of commonly used solvents [2] | Solubility in butylene glycol benzoate at 25° C. ([1]; 4 weeks) | Solubility in propylene glycol benzoate at 25° C. ([1]; 4 weeks) |
| --- | --- | --- | --- | --- | --- |
| CC(C)C1C2CCC1c1c(NC(=O)c3cn(C)nc3C(F)F)cccc12 (centres unmarked) [Isopyrazam] | 12.4 % w/w | 12.7 % w/w | higher | – | – |
| N#Cc1c(Cl)c(Cl)c(Cl)c(C#N)c1Cl [Chlorothalonil] | – | 1.32 % w/w | lower | – | – |
| CC(C1CC1)C(O)(Cn1cncn1)c1ccc(Cl)cc1 (centres unmarked) [Cyproconazole] | – | – | – | 6.9 % w/w | 4.5 % w/w |
| CO/C=C(/C(=O)OC)c1ccccc1Oc1cc(Oc2ccccc2C#N)ncn1 [Azoxystrobin] | 8.1 % w/w | 5.5 % w/w | higher | – | – |
| COCCOCc1nc(C(F)(F)F)ccc1C(=O)C1=C(O)C2CCC(C2)C1=O (centres unmarked) [4-Hydroxy-3-[2-(2-methoxyethoxymethyl)-6-trifluoromethylpyridine-3-carbonyl]-bicyclo[3.2.1]oct-3-en-2-one] | – | 27.4 % w/w | – | – | – |
